From patent US10301352B2, “Peptidomimetics with antiangiogenic activity” (UNIWERSYTET WARSZAWSKI, priority 2013, dated 2019)
Non-standard residues stand in square brackets, D forms with d. Residues, ends and D or L forms follow the SMILES beside them. No end group written: not given here. ξ: configuration not given here. hArg = N=C(N)NCCCC[C@H](N)C(=O)O; Dab = NCC[C@H](N)C(=O)O; Dap = NC[C@H](N)C(=O)O; ξP = O=C(O)C1CCCN1

Columns and labels:
[1] = biological target: T1, NRP-1 (Rattus norvegicus, UniProt Q9QWJ9); test: VEGF165 displacement assay (inhibition of VEGF165 to NRP-1 binding); settings: biotinylated VEGF165 1 nM; for inhibition at 0.03 µM: compound 0.03 μM; for inhibition at 0.1 µM: compound 0.1 μM; for inhibition at 0.3 µM: compound 0.3 μM; for inhibition at 1 µM: compound 1 μM
T1 construct: purchased R&D Systems
Protocol: Antiangiogenic properties were evaluated in vitro by measuring the inhibition of VEGF165 to NRP-1 binding. This test makes it possible to evaluate the % inhibition by the evaluated compound at a particular concentration.
The evaluation of the inhibitory effect of peptidomimetics were performed using an enzymatic method denoting the spectrophotometric displacement of the VEGF165 ligand from a bond with the specific receptor Neuropilin-1 by the evaluated compound. The studies were performed using polystyrene 96-well plates (Maxisorb, Nunc.).
To evaluate the biological inhibitory activity of selected molecules, the surfaces of flat bottom polystyrene wells of 96-wells plates (Maxisorb, Nunc,) was treated with 100 ul of 2 ug/ml anti-Fc IgG (Sigma-Aldrich, Saint Quentin Fallavier, France) in phosphate buffer saline (PBS, Sigma) overnight at 4° C. After washing and saturation of non-specific interactions with bovine serum albumin (BSA, Sigma), purified recombinant rat NRP1-Fc (20 ng/well, R&D Systems, Abingdon, UK) in 50 μl PBS-BSA 0.1%-tween-80 0.005% (PBT), […] VEGF165 (final concentration 1 nM, R&D Systems) diluted in PBT containing 2 μg/ml of heparin (Sigma) were successively added to a final volume of 150 μl. After an overnight incubation at 4° C., the wells were washed with PBT and treated with streptavidin-HRP polymer (Sigma) followed by washing and addition of ABTS substrate (Sigma). The DO measures were performed at 415 nm in reference to 470 nm after 15 minutes-2 h of reaction. […] In the control wells, the tested compound was absent but the respective concentration of DMSO was maintained. The heptapeptide A7R (ATWLPPR) was routinely used as a positive control for each plate.

[2] = In vitro peptidomimetic stability in human plasma (LC/MS); assay type: in vitro ADME; settings: 37° C.; for half-life at 0.35 μmol/mL: human plasma from healthy donors, TFA salt, read-out: half-life time; for main enzymatic cleavage / degradation products: human plasma
Protocol: The stability of two peptidomimetics: Lys(hArg)-Dap-Pro-Arg and Lys(hArg-Pro-Dab-Arg were tested in plasma samples obtained from healthy donors. Peptidomimetics stock solutions were prepared by dissolving the TFA salt of proper peptidomimetic in water to obtain a final peptidomimetic concentration of 0.7 μmol/mL. In a Eppendorf tube, samples of 100 μL of human plasma were temperature-equilibrated at 37° C. for 15 minutes before adding 100 μL of peptidomimetic stock solution. Three tubes allowed the analysis for each time point. The initial time was recorded and at known time intervals (every 10 minutes from 0 sec to 3 h), 400 μL of solution of TCA in 99.8% ethanol (CTCA=0.2%) was added to the reaction solution for precipitation of the serum proteins. The cloudy reaction sample was shaken and then spun at 2000 g to pellet the precipitated serum proteins. The reaction supernatant was then analyzed by LC/MS analysis (using a RP-HPLC-ESI-MS system).

T1 sequence (Q9QWJ9 with tags, fused parts or gaps limits assumed): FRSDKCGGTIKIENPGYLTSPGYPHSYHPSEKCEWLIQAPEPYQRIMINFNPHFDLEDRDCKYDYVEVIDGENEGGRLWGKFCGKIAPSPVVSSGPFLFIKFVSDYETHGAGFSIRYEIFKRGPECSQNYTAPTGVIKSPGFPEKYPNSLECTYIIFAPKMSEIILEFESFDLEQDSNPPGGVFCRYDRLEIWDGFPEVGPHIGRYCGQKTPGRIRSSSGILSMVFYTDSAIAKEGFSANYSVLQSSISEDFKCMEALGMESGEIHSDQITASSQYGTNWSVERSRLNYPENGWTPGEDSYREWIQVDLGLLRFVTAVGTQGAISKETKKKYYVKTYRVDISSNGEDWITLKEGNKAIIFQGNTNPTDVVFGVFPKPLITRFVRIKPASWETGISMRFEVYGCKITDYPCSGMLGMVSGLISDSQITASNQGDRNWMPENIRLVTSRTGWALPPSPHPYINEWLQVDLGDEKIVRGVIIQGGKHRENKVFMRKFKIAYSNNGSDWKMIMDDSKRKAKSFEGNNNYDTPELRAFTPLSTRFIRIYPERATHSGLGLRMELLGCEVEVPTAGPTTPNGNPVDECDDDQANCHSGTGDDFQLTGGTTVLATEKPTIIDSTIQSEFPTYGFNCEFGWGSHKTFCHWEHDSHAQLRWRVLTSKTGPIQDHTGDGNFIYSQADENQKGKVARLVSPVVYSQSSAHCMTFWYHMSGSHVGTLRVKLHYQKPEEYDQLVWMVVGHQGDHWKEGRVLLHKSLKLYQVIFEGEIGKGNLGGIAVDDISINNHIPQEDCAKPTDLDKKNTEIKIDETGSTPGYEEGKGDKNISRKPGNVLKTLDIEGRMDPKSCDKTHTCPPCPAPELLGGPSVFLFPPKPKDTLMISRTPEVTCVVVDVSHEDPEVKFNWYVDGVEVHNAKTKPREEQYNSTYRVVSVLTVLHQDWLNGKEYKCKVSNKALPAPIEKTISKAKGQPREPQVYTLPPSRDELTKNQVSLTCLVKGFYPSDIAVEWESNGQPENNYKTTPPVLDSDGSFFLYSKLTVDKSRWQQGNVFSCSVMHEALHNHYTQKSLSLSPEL

Compound	inhibition at 0.03 µM [1] [%]	inhibition at 0.1 µM [1] [%]	inhibition at 0.3 µM [1] [%]	inhibition at 1 µM [1] [%]	inhibition at 3 µM ([1]; compound 3 μM) [%]	inhibition at 10 µM ([1]; compound 10 μM) [%]	inhibition at 30 µM ([1]; compound 30 μM) [%]	half-life at 0.35 μmol/mL [2] [h]	main enzymatic cleavage / degradation products [2]	% inhibition of VEGF165 to NRP-1 binding ([1]; compound 3 μM) [%]	% inhibition of VEGF165 to NRP-1 binding ([1]; compound 10 μM) [%]	% inhibition of VEGF165 to NRP-1 binding ([1]; compound 30 μM) [%]
N=C(N)NCCCC[C@H](N)C(=O)NCCCC[C@H](N)C(=O)N1CCCC1C(=O)N[C@@H](CCN)C(=O)N[C@@H](CCCNC(=N)N)C(=O)O (stereo partly drawn) [compound 2, Lys(hArg)-Pro-Dab-Arg] (H-K(hArg)[ξP][Dab]R-OH)	13.7	35.4	62.2	82.6	93.6	98.3	100	0.667	to Lys(hArg)-Pro and Dab-Arg			
N=C(N)NCCCC[C@H](N)C(=O)NCCCC[C@H](N)C(=O)N[C@@H](CCN)C(=O)N1CCC[C@H]1C(=O)N[C@@H](CCCNC(=N)N)C(=O)O [compound 4, Lys(hArg)-Dab-Pro-Arg] (H-K(hArg)[Dab]PR-OH)		21.6	47.8	82.4	91.4	98.5	100					
ATWLPPR [A7R, reference compound]										61.2	76.9	85.5
N=C(N)NCCCC[C@H](N)C(=O)NCCCC[C@H](N)C(=O)N[C@@H](CN)C(=O)N1CCC[C@H]1C(=O)N[C@@H](CCCNC(=N)N)C(=O)O [compound 3, Lys(hArg)-Dap-Pro-Arg] (H-K(hArg)[Dap]PR-OH)	11.6	33	59.4	82	93.4	96.8	99.7	~2.33	between the first and second residue			
